Read-outs that look alike come from different tables or passages of the source.
Assays:
Type in all cases: in vivo
[1] = tested on: Alopecurus myosuroides (ALOMY); experiment: Glasshouse assay for herbicidal activity, pre-/post-emergence (percentage phytotoxicity); details: Alopecurus myosuroides, Rate 250 g/ha, 100%=total damage, 0%=no damage
In short: (§1)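 Test plants are sown in pots of standard soil, held one day for pre-emergence or about twelve days for post-emergence, then treated. They grow on under glasshouse control with twice-daily watering, and damage is rated by eye as a percentage at 15 (post) or 20 (pre) days after application.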

[2] = tested on: Avena fatua (AVEFA); experiment: as above; details: Avena fatua, Rate 250 g/ha, 100%=total damage, 0%=no damage
In short: as §1

[3] = tested on: Echinochloa crus-galli (ECHCG); experiment: as above; details: Echinochloa crus-galli, Rate 250 g/ha, 100%=total damage, 0%=no damage
In short: as §1

[4] = tested on: Lolium perenne (LOLPE); experiment: as above; details: Lolium perenne, Rate 250 g/ha, 100%=total damage, 0%=no damage
In short: as §1

[5] = tested on: wheat; experiment: Post-emergence herbicidal activity against cereal crops (wheat) +/- safener, crop selectivity; details: 100%=total damage to plant, 0%=no damage; for Post-emergence herbicidal activity against wheat (percentage phytotoxicity), +CQC: 250 g/ha, plus safener cloquintocet-mexyl (CQC) applied at 50 g/ha; for percent phytotoxicity (crop damage) to wheat at 250 g/ha: Triticum aestivum, 360 h, without safener, read-out: Post-emergence herbicidal activity against wheat (percentage phytotoxicity), Wheat - CQC
In short: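 Test plants raised in pots in a glasshouse (24/18 °C warm or 20/16 °C cool species day/night, 16 h light, 65% humidity) and treated post-emergence about 12 days after sowing. Visual percentage phytotoxicity scored 15 days after application (0% = no damage, 100% = total damage).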

[6] = 360 h, post-emergence, visual assessment 15 DAA, read-out: Post-emergence herbicidal activity (percentage phytotoxicity), ALOMY POST
[7] = 480 h, pre-emergence, visual assessment 20 DAA, read-out: Pre-emergence herbicidal activity (percentage phytotoxicity), ALOMY PRE
[8] = post-emergence, 360 h, post-emergence, visual assessment 15 DAA, read-out: Post-emergence herbicidal activity (percentage phytotoxicity), AVEFA POST
[9] = pre-emergence, 480 h, pre-emergence, visual assessment 20 DAA, read-out: Pre-emergence herbicidal activity (percentage phytotoxicity), AVEFA PRE
[10] = post-emergence, 360 h, post-emergence, visual assessment 15 DAA, read-out: Post-emergence herbicidal activity (percentage phytotoxicity), ECHCG POST
[11] = pre-emergence, 480 h, pre-emergence, visual assessment 20 DAA, read-out: Pre-emergence herbicidal activity (percentage phytotoxicity), ECHCG PRE
[12] = post-emergence, 360 h, post-emergence, visual assessment 15 DAA, read-out: Post-emergence herbicidal activity (percentage phytotoxicity), LOLPE POST
[13] = pre-emergence, 480 h, pre-emergence, visual assessment 20 DAA, read-out: Pre-emergence herbicidal activity (percentage phytotoxicity), LOLPE PRE

Structure (SMILES) | pest or weed control at 250 g/ha [1, 6] | pest or weed control at 250 g/ha [1, 7] | pest or weed control at 250 g/ha [2, 8] | pest or weed control at 250 g/ha [2, 9] | pest or weed control at 250 g/ha [3, 10] | pest or weed control at 250 g/ha [3, 11] | pest or weed control at 250 g/ha [4, 12] | pest or weed control at 250 g/ha [4, 13] | Post-emergence herbicidal activity against wheat (percentage phytotoxicity), +CQC [5] | percent phytotoxicity (crop damage) to wheat at 250 g/ha [5]
Cc1cc(C)c(C2C(=O)CC(CCNC(=S)Nc3ccccc3F)C2=O)c(C)c1 (stereo not shown) [Compound A88] | 0% | 0% | 0% | 0% | 0% | 40% | 60% | 40% | 0% | 0%
Cc1cc(C)c(C2C(=O)CC(CCNC(=S)Nc3ccc(F)cc3)C2=O)c(C)c1 (stereo not shown) [Compound A89] | 0% | 0% | 40% | 0% | 0% | 30% | 0% | 40% | 0% | 10%
Cc1cc(C)c(C2C(=O)CC(CCNC(=S)Nc3ccccc3)C2=O)c(C)c1 (stereo not shown) [Compound A90, 1-[2-[2,4-dioxo-3-(2,4,6-trimethylphenyl)cyclopentyl]ethyl]-3-phenyl-thiourea] | 20% | 0% | 60% | 0% | 60% | 40% | 20% | 70% | 20% | 0%
Cc1cc(C)c(C2C(=O)CC(CCNC(=S)NC(=O)c3ccccc3)C2=O)c(C)c1 (stereo not shown) [Compound A91] | 80% | 60% | 10% | 60% | 0% | 70% | 70% | 70% | 70% | 70%
